Source: patent publication US20190126075A1, “FOOD AND DRINK PRODUCT CONTAINING POORLY DIGESTIBLE COMPOUND AND COLONIC-HYDROGEN-GAS PRODUCING AGENT” (Kyodo Milk Industry Co., Ltd., priority 2015, published 2019)
Marks after values point to notes of the source that are not given here.

Key:
[1] = system: fecal bacteria; assay: H2 production in fecal incubation system, single components vs mixture of three (Example 2); assay type: cell-based, human; settings: 14 subjects; 0.8% solution of each component in PBS
Experimental: (§1) Twenty milliliters of an anaerobic dilution solution (a solution prepared by dissolving KH2PO4, Na2HPO4, L-cysteine hydrochloride, Tween 80, and 0.1% Resazurin in a vial, jet-injecting N2 and CO2 (80%, 20%) into the vial, and autoclaving the vial sealed with a butyl rubber stopper) was added to 5 g of each of the collected samples, and the mixture was stirred by vortexing and then centrifuged (at 1000 g for 1 min.) to remove solids such as undigested food debris. 160 μL of each of the fecal suspension supernatants harboring fecal bacteria was dispensed into an Eppendorf tube, and 40 μL of each of the prepared solutions of digestion-resistant components in PBS was added to each of the Eppendorf tubes (final concentrations of digestion-resistant components: 0.5%). The Eppendorf tubes containing a mixture of fecal suspension and digestion-resistant component were placed into vial bottles (40 mm×75 mm, 50 mL) while the lids of the tubes and bottles were left open, and a mixed gas of N2 and CO2 (79.8%, 20.2%) was jet-injected to render the Eppendorf tubes and the bottles anaerobic. The vials were sealed with butyl rubber stoppers and incubated in an incubator (at 37° C. for 24 hours). The experiments were done in duplicate per sample, with each experiment being repeated three times.
(§2) Half a milliliter of the gas in each of the vial bottles was collected in a 1.0 mL gastight syringe (produced by Hamilton Company) and analyzed by TRIlyzer (Taiyo Nippon Sanso Corporation). In this process, when concentration exceeded the detection limit, 1 mL of the sample was injected into a 50 mL vial bottle, diluted 50-fold, and subjected to concentration measurement. Before gas collection, the gas in the vial bottles was stirred five times using the syringe.
Each of maltitol, galactooligosaccharide and glucomannan was dissolved in PBS to give a 0.8% solution. Similarly, in order to prepare a mixed solution of the three components, these components were mixed at a concentration of 0.8% each, and dissolved in PBS. The control used was a PBS solution not containing any of these components.
Fecal samples from 14 human healthy adult subjects (11 male, 3 female, average aged 40.9) were used.
Fecal treatment and incubation, and H2 concentration measurement, were performed by the same procedures as in Example 1.

[2] = system: fecal bacteria; assay: H2 production in fecal incubation system, single digestion-resistant components (Example 1); assay type: cell-based, human; settings: final concentration 0.5%; for subjects whose fecal samples showed a sample/control ratio of 10 or higher: 10 subjects; for ratio of the H2 production concentration in sample relative to control: 37° C. for 24 hours
Excerpt: Twenty-three different types of digestion-resistant components (cellulose, isomaltooligosaccharide, lactose, fructooligosaccharide, galactooligosaccharide, cellobiose, xylooligosaccharide, xylitol, sorbitol, erythritol, maltitol, mannitol, pectin, sodium alginate, glucomannan, lignin, chitin, chitosan, resistant starch, resistant dextrin, reduced resistant dextrin, kale, or young barley leaf) were each diluted with phosphate buffered saline (PBS) to adjust the concentration to 2.5% (w/v). Among these components, those which were not completely dissolved were used in a suspended state. The control used was a PBS solution not containing any of these components.
Fecal samples were collected from 10 human healthy adult subjects (7 male, 3 female, average aged 35.8), and were used within 5 hours after defecation.
as §1, §2
The ratio of the H2 production concentration in each of the samples relative to that in the control was calculated, and those sample/control ratios of 10 or higher are shaded in the table (Table 1).

Compound	subjects whose fecal samples showed a sample/control H2 production concentration ratio of 2 or higher [1]	subjects whose fecal samples showed a sample/control H2 production concentration ratio of 3 or higher [1]	subjects whose fecal samples showed a sample/control H2 production concentration ratio of 5 or higher [1]	subjects whose fecal samples showed a sample/control ratio of 10 or higher [2]	ratio of the H2 production concentration in sample relative to control ([2]; Subject No. 1 fecal sample)	ratio of the H2 production concentration in sample relative to control ([2]; Subject No. 2 fecal sample)	ratio of the H2 production concentration in sample relative to control ([2]; Subject No. 3 fecal sample)	ratio of the H2 production concentration in sample relative to control ([2]; Subject No. 4 fecal sample)	ratio of the H2 production concentration in sample relative to control ([2]; Subject No. 5 fecal sample)	ratio of the H2 production concentration in sample relative to control ([2]; Subject No. 6 fecal sample)	ratio of the H2 production concentration in sample relative to control ([2]; Subject No. 7 fecal sample)	ratio of the H2 production concentration in sample relative to control ([2]; Subject No. 8 fecal sample)	ratio of the H2 production concentration in sample relative to control ([2]; Subject No. 9 fecal sample)	ratio of the H2 production concentration in sample relative to control ([2]; Subject No. 10 fecal sample)
4′-galactosyllactose [Galactooligosaccharide]	8 of 14	0 of 14	not in any	5 of 10	5.3	18.5*	35.8*	16.9*	15.4*	22.1*	0.8	0.8	0.1	5.9
O=C[C@H](O)[C@@H](O)[C@H](O[C@@H]1O[C@H](CO)[C@@H](O)[C@H](O)[C@H]1O)[C@H](O)CO [Cellobiose, cellobiose]				7 of 10	25.7*	37.0*	67.3*	76.5*	8.1	52.0*	3.1	7.5	46.4*	18.9*
OC[C@@H](O)[C@@H](O)CO [Erythritol, erythritol]				2 of 10	12.7*	27.6*	3.8	1.5	7.1	1.8	4.0	1.8	1.0	2.1
OC[C@H]1O[C@@H](O[C@H]2[C@H](O)[C@@H](O)C(O)O[C@@H]2CO)[C@H](O)[C@@H](O)[C@H]1O (stereo partly shown) [Lactose, lactose]				4 of 10	4.9	9.5	36.6*	28.7*	22.4*	22.1*	0.5	0.7	0.1	7.1
OC[C@@H](O)[C@@H](O[C@H]1O[C@H](CO)[C@@H](O)[C@H](O)[C@H]1O)[C@H](O)[C@@H](O)CO [Maltitol, 4-O-α-D-glucopyranosyl-D-glucitol]	9 of 14	5 of 14	2 of 14	6 of 10	12.5*	7.2	386.6*	22.1*	2.6	8.4	315.5*	0.8	55.6*	32.3*
OC[C@@H](O)[C@@H](O)[C@H](O)[C@H](O)CO [Mannitol, mannitol]				5 of 10	2.2	28.2*	234.7*	81.9*	6.6	76.2*	54.3*	1.7	0.0	3.5
OC[C@@H](O)[C@@H](O)[C@H](O)[C@@H](O)CO [Sorbitol, sorbitol]				4 of 10	31.6*	9.6	33.0*	54.8*	3.4	4.2	68.6*	1.7	0.1	4.5
OC[C@@H](O)[C@H](O)[C@@H](O)CO [Xylitol, xylitol]				6 of 10	18.4*	11.1*	40.2*	72.4*	8.8	3.2	1.4	1.9	12.5*	60.2*
